Experimental data as given in ChEMBL document CHEMBL1123313, “Folate analogues. 25. Synthesis and biological evaluation of N10-propargylfolic acid and its reduced derivatives” (J Med Chem, 1986).
≈ marks a conversion by molar mass, not a printed value.

What was measured:
Lacticaseibacillus casei [1] = assay: Inhibitory activity against Lactobacillus casei ATCC 7469; type: functional, organism-based
Enterococcus faecium [2] = assay: Inhibitory activity against Streptococcus faecium ATCC 8043; type: functional, organism-based
Thymidylate synthase [3] = molecular target: T1, Thymidylate synthase (Lactobacillus casei, UniProt P00469); assay: Inhibitory activity against thymidylate synthase derived from Lactobacillus casei; set-up: species or system Lacticaseibacillus casei
T1 sequence (P00469 whole entry): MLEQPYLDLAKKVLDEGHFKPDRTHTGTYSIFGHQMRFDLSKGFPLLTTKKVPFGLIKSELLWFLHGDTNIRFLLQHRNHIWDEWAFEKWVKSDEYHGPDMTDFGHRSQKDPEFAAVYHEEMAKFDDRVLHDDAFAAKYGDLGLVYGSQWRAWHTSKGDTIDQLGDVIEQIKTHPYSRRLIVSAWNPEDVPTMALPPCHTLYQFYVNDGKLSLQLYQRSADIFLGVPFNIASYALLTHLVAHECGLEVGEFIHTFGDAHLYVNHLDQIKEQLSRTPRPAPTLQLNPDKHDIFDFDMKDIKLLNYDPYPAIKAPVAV

Dihydrofolate reductase = Dihydrofolate reductase (Lactobacillus casei, UniProt P00381)
Description: Inhibitory activity against dihydrofolate reductase derived from Lactobacillus casei

Lacticaseibacillus casei [4] = assay: Inhibitory activity against Lactobacillus casei MTX-resistant; type: functional, organism-based
Enterococcus faecium [5] = assay: Inhibitory activity against Streptococcus faecium MTX-resistant; type: functional, organism-based
Thymidylate synthase [6] = molecular target: T2, Thymidylate synthase (Mus musculus, UniProt P07607); assay: Inhibitory activity against the thymidylate synthase in the Permeabilized L1210 cells; type: cell-based
Thymidylate synthase [7] = molecular target: T2, Thymidylate synthase; assay: Inhibitory activity against thymidylate synthase in the intact L1210 cells; type: cell-based
[8] = Lacticaseibacillus casei, read-out: IC50

T2 sequence (P07607 whole entry): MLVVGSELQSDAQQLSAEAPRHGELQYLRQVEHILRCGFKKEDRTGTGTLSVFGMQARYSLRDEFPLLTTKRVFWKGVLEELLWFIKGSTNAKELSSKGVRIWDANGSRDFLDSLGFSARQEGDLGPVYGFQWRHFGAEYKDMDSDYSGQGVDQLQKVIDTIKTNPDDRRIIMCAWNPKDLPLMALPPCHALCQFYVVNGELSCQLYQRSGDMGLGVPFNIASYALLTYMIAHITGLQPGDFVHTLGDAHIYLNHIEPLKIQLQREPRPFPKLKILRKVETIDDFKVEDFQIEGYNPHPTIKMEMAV
Sequence of Dihydrofolate reductase (P00381 whole entry): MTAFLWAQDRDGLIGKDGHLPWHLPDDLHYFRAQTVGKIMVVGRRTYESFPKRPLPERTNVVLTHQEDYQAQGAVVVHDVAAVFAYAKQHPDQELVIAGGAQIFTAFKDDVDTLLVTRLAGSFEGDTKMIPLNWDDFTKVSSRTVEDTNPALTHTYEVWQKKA

Row | SMILES | IC50 (Lacticaseibacillus casei [1]) [ng/mL] | IC50 (Enterococcus faecium [2]) [ng/mL] | IC50 (Thymidylate synthase [3]) [µM] | IC50 (Dihydrofolate reductase) [µM] | IC50 (Lacticaseibacillus casei [4]; [8]) [ng/mL] | IC50 (Enterococcus faecium [5]) [ng/mL] | IC50 (Thymidylate synthase [6]) [µM] | IC50 (Thymidylate synthase [7]) [µM] | IC50 (Lacticaseibacillus casei [4]) [ng/mL]
1 | C#CCN(CC1=Nc2c(O)nc(N)nc2NC1)c1ccc(C(=O)NC(CCC(=O)O)C(=O)O)cc1 (stereo not drawn) | 36 (≈ 0.0748 µM) | 0.13 (≈ 0.00027 µM) | 50 | > 50 | > 2000 | 24 (≈ 0.0498 µM) | – | – | –
2 | C#CCN(CC1CNc2nc(N)nc(O)c2N1)c1ccc(C(=O)NC(CCC(=O)O)C(=O)O)cc1 (stereo not drawn) | > 2000 | 0.08 (≈ 0.000165 µM) | 32 | > 140 | > 2000 | > 2000 | – | – | –
3 | CN(Cc1cnc2nc(N)nc(O)c2n1)c1ccc(C(=O)NC(CCC(=O)O)C(=O)O)cc1 (stereo not drawn) | – | – | – | – | – | – | 660 | > 1000 | –
4 | C#CCN(Cc1cnc2nc(N)nc(O)c2n1)c1ccc(C(=O)O)cc1 | > 2000 | 0.76 (≈ 0.00217 µM) | > 290 | > 100 | > 2000 | > 2000 | – | – | –
5 | C#CCN(Cc1cnc2nc(N)nc(O)c2n1)c1ccc(C(=O)NC(CCC(=O)O)C(=O)O)cc1 (stereo not drawn) | > 2000 | 0.56 (≈ 0.00117 µM) | 3.9 | > 100 | > 2000 | > 2000 | 7.5 | > 3000 | –
6 | C#CCN(Cc1ccc2[nH]c(N)nc(=O)c2c1)c1ccc(C(=O)NC(CCC(=O)O)C(=O)O)cc1 (stereo not drawn) | – | – | – | – | 2000 (≈ 4.19 µM) | – | – | – | –
7 | Nc1nc2ncc(CNc3ccc(C(=O)N[C@@H](CCC(=O)O)C(=O)O)cc3)nc2c(=O)[nH]1 [FOLIC ACID] | – | – | – | – | – | – | 1800 | > 1000 | –
8 | CN(Cc1cnc2nc(N)nc(N)c2n1)c1ccc(C(=O)N[C@@H](CCC(=O)O)C(=O)O)cc1 [METHOTREXATE] | 0.02 (≈ 4.4e-05 µM) | – | – | – | – | – | – | – | > 500000
